Structures can show the parent of a compound that is named as a salt.
target: T1, human metastin receptor hOT7T175 (Homo sapiens, UniProt Q969F8, L364H); experiment: binding inhibiting activity: 125I-metastin (40-54) binding to cell membrane fraction of h175 KB34 cells; conditions: room temperature 60 minutes, read-out: binding inhibiting activity, represented by the IC50 value
T1 construct: encoding the entire length of human metastin receptor hOT7T175; expressed in transfected cells; host or cells: CHO/dhFr- cells (ATCC #CRL-9096) stably transfected with pAKKO-hOT7T175; clone h175-16 was used as whole cells for FLIPR
T1 sequence (Q969F8 whole entry L364H): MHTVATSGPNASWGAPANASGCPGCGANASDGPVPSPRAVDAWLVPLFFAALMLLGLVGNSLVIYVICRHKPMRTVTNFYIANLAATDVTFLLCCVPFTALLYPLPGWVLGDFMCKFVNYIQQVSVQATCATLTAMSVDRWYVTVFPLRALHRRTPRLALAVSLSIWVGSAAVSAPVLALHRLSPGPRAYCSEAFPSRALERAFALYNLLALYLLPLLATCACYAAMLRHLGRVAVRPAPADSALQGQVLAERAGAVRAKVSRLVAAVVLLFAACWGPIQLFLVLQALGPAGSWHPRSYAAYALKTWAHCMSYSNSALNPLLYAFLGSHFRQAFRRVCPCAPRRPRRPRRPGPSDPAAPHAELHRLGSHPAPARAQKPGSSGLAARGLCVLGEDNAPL
Procedure: cDNA fragments (SEQ ID NO: 2) encoding the entire length of human metastin receptor hOT7T175 were incorporated into expression vector pAKKO1.11H to produce animal cell expression plasmids pAKKO-hOT7T175. CHO/dhFr-cells (ATCC, #CRL-9096) were seeded onto 6 cm culture dishes (Becton Dickinson) at a density of 0.3×10^6 cells/dish, and cultured in the conditions of 48 hours, 37° C. and 5% CO2. 5 μg pAKKO-hOT7T175 plasmid DNA was transfected to the resultant cells by a known method (described in Example 3 of WO 00/24890) using the Cellphect Transfection Kit (Amersham, #27-9268-01). The DNA-transfected cells were cultured in the Dulbecco's modified Eagle medium (DMEM) (Sigma, #D6046) containing 10% dialyzed FBS (Biowest, #S180D), 1× Non-Essential Amino Acid (Invitrogen, #11140-050) and 50 μg/ml Gentamycin (Invitrogen, #15750-060; and cell strains stably expressing the plasmid genes were selected. The obtained 41 clones were treated with the FLIPR assay (in accordance with the method described in Example 3 of WO 00/24890), and the reactivity to the human metastin […] (Nos. 40 to 54 of the human metastin sequence; Peptide Institute, Inc., #4389-v) was evaluated. In the end, h175 KB34 cell strains were selected. By substantially the same method, h175-16 cell strains were also produced.
The h175 KB34 cells were cultured to be on the stage of 40-50% confluency using a cell factory (Nunc, #164327), and then cells were recovered in the following method.
First, the medium was disposed, and the cells were washed twice with 200 ml EDTA/PBS(−). Another 200 ml of EDTA/PBS(−) was added, and the cells were kept still for 20 minutes at room temperature until being peeled off. The cells were recovered into four 50 ml tubes (Becton Dickinson, #352070), and centrifuged (2,000 rpm, 10 min., 4° C.) by a reduced performance centrifuge (TOMY, RL-101). The supernatant was disposed, and the pellets in the four tubes were each suspended with 10 ml EDTA/PBS(−) and collected into one tube (Becton Dickinson, #352070). The pellet was further centrifuged (2,000 rpm, 10 min., 4° C.). The resultant pellet was suspended with 20 ml ice-cooled homogenizer buffer [10 mM NaHCO3, 2 mM EGTA, 0.2 mM magnesium acetate, 10 μg/ml Leupeptin (Peptide Institute, Inc., #4041), 10 μg/ml E-64 (Peptide Institute, Inc., # 4096), 100 μg/ml o-phenanthroline (Dojindo Laboratories), 90 μg/ml PMSF (Wako Pure Chemical Industries, Ltd.), 10 μg/ml Pepstatin A (Peptide Institute, Inc., #4397), pH7.3]. The cell suspension was homogenized 3 times, each for 30 seconds, using a Polytron homogenizer. The resultant homogenate was centrifuged (2,500 rpm, 10 min, 4° C.) using a high performance refrigerated centrifuge (Hitachi, Ltd., CR26H). The supernatant was recovered into a super-centrifuge tube, and super-centrifuged (30,000 rpm, 60 min, 4° C.) using a super-centrifuge (Hitachi, Ltd., SCP70H). 3 ml homogenizer buffer was added to the resultant pellet, and the pellet was suspended by pipetting. 3 ml glycerol (Wako Pure Chemical Industries, Ltd.) was added to the resultant suspension and diluted 2-folds. The resultant substance was used as a cell membrane fraction of the h175 KB34 cells. Each […] of the membrane fraction was put into a 1.5 ml tube (Eppendorf, #0030120.086), stored in a freezer (−30 C) so as not to be frozen, and used for a binding assay.
An assay buffer was prepared on the day of the test by adding, to each 100 ml of an assay basic buffer [20 mM Tris, 2.5 mM Magnesium Acetate, 2 mM EGTA, pH 7.4], 1 mg Leupeptin (Peptide Institute, Inc., 4041), 1 mg E-64 (Peptide Institute, Inc., 4096), 10 mg o-phenanthroline (Dojindo Laboratories), 9 mg PMSF (Wako Pure Chemical Industries, Ltd.) and 1 mg Pepstatin A (Peptide Institute, Inc., 4397). The prepared assay buffer was stored at 4° C. until being used. When the measurement was to be performed with no BSA, the above-described assay buffer was used. […]

IC50, ≤ 10 µM:
N#Cc1c(-c2cc(NC(=O)CCN)ccc2Cl)cc(-c2ccccc2O)nc1NC(=O)c1cccs1 [Example 42, N-{4-[5-(β-alanylamino)-2-chlorophenyl]-3-cyano-6-(2-hydroxyphenyl)pyridin-2-yl}thiophene-2-carboxamide dihydrochloride]
N#Cc1c(-c2cccc(NC(=O)CCN)c2)cc(-c2cc(Cl)ccc2O)nc1NC(=O)c1cccs1 [Example 46, N-{4-[3-(β-alanylamino)phenyl]-6-(5-chloro-2-hydroxyphenyl)-3-cyanopyridin-2-yl}thiophene-2-carboxamide trifluoroacetate]
COc1ccc(-c2cc(-c3cccc(NC(=O)CCN)c3)c(C#N)c(NC(=O)c3ccccc3)n2)c(O)c1 [Example 50, N-{4-[3-(β-alanylamino)phenyl]-3-cyano-6-(2-hydroxy-4-methoxyphenyl)pyridin-2-yl}benzamide trifluoroacetate]
N#Cc1c(-c2cccc(NC(=O)CCN)c2)cc(-c2ccc(Cl)cc2O)nc1NC(=O)c1ccccc1 [Example 51, N-{4-[3-(β-alanylamino)phenyl]-6-(4-chloro-2-hydroxyphenyl)-3-cyanopyridin-2-yl}benzamide trifluoroacetate]
N#Cc1c(-c2cccc(NC(=O)CCN)c2)cc(-c2ccc(Cl)cc2O)nc1NC(=O)c1cccs1 [Example 56, N-{4-[3-(β-alanylamino)phenyl]-6-(4-chloro-2-hydroxyphenyl)-3-cyanopyridin-2-yl}thiophene-2-carboxamide trifluoroacetate]
N#Cc1c(-c2cccc(NC(=O)CCN)c2)cc(-c2ccc(F)cc2O)nc1NC(=O)c1cccs1 [Example 58, N-{4-[3-(β-alanylamino)phenyl]-3-cyano-6-(4-fluoro-2-hydroxyphenyl)pyridin-2-yl}thiophene-2-carboxamide hydrochloride]
N#Cc1c(-c2cccc(C(=O)NCCN)c2)cc(-c2ccc(F)cc2O)nc1NC(=O)c1ccco1 [Example 66, N-[4-(3-{[(2-aminoethyl)amino]carbonyl}phenyl)-3-cyano-6-(4-fluoro-2-hydroxyphenyl)pyridin-2-yl]-2-furamide hydrochloride]
N#Cc1c(-c2cccc(NC(=O)[C@@H](N)Cc3cnc[nH]3)c2)cc(-c2ccc(Cl)cc2O)nc1NC(=O)c1ccco1 [Example 243, N-{3-[6-(4-chloro-2-hydroxyphenyl)-3-cyano-2-(2-furoylamino)pyridin-4-yl]phenyl}-L-histidinamide dihydrochloride]
N#Cc1c(-c2cccc(NC(=O)CCN)c2)cc(-c2ccc(Cl)cc2O)nc1NC(=O)c1ccno1 [Example 251, N-[4-[3-(β-alanylamino)phenyl]-6-(4-chloro-2-hydroxyphenyl)-3-cyanopyridin-2-yl]isoxazole-5-carboxamide hydrochloride]
N#Cc1c(-c2cccc(NC(=O)[C@H](N)Cc3cnc[nH]3)c2)cc(-c2ccc(Cl)cc2O)nc1NC(=O)c1ccco1 [Example 253, N-{3-[6-(4-chloro-2-hydroxyphenyl)-3-cyano-2-(2-furoylamino)pyridin-4-yl]phenyl}-D-histidinamide dihydrochloride]
N#Cc1c(-c2cccc(NC(=O)CCN)c2)cc(-c2ccc(Cl)cc2O)nc1NC(=O)c1ccoc1 [Example 254, N-[4-[3-(β-alanylamino)phenyl]-6-(4-chloro-2-hydroxyphenyl)-3-cyanopyridin-2-yl]-3-furamide hydrochloride]
COc1ccc(C(=O)Nc2nc(-c3ccc(Cl)cc3O)cc(-c3cccc(NC(=O)CCN)c3)c2C#N)c(OC)c1 [Example 255, N-[4-[3-(β-alanylamino)phenyl]-6-(4-chloro-2-hydroxyphenyl)-3-cyanopyridin-2-yl]-2,4-dimethoxybenzamide dihydrochloride]
N#Cc1c(-c2cccc(NC(=O)[C@H](N)Cc3c[nH]cn3)c2)cc(-c2ccc(F)cc2O)nc1NC(=O)c1ccco1 [Example 261, N-{3-[3-cyano-6-(4-fluoro-2-hydroxyphenyl)-2-(2-furoylamino)pyridin-4-yl]phenyl}-D-histidinamide hydrochloride]
C[C@H](N)CNC(=O)c1cccc(-c2cc(-c3ccc(Cl)cc3O)nc(NC(=O)c3ccno3)c2C#N)c1 [Example 268, N-[4-[3-({[(2S)-2-aminopropyl]amino}carbonyl)phenyl]-6-(4-chloro-2-hydroxyphenyl)-3-cyanopyridin-2-yl]isoxazole-5-carboxamide hydrochloride]
N#Cc1c(-c2ccnc(C(=O)NCCN)c2)cc(-c2ccccc2O)nc1NC(=O)c1ccco1 [Example 272, N-(2-aminoethyl)-3′-cyano-2′-(2-furoylamino)-6′-(2-hydroxyphenyl)-4,4′-bipyridine-2-carboxamide dihydrochloride]
CC(N)CC(=O)Nc1cccc(-c2cc(-c3ccc(Cl)cc3O)nc(NC(=O)c3cccn3C)c2C#N)c1 (stereo not drawn) [Example 274, N-[4-{3-[(3-aminobutanoyl)amino]phenyl}-6-(4-chloro-2-hydroxyphenyl)-3-cyanopyridin-2-yl]-1-methyl-1H-pyrrole-2-carboxamide hydrochloride]
COc1c(NC(=O)OC(C)(C)C)cccc1-c1cc(-c2ccccc2O)nc(NC(=O)c2ccco2)c1C#N [Example 275, tert-butyl{3-[3-cyano-2-(2-furoylamino)-6-(2-hydroxyphenyl)pyridin-4-yl]-2-methoxyphenyl}carbamate]
COc1c(NC(=O)CCN)cccc1-c1cc(-c2ccccc2O)nc(NC(=O)c2ccco2)c1C#N [Example 276, N-[4-[3-(β-alanylamino)-2-methoxyphenyl]-3-cyano-6-(2-hydroxyphenyl)pyridin-2-yl]-2-furamide hydrochloride]
N#Cc1c(N2CCCC(C(=O)NCCN)C2)cc(-c2ccccc2O)nc1NC(=O)c1ccco1 (stereo not drawn) [Example 288, N-(2-aminoethyl)-1-[3-cyano-2-(2-furoylamino)-6-(2-hydroxyphenyl)pyridin-4-yl]piperidine-3-carboxamide hydrochloride]
Cl.N#Cc1c(-c2cccc(NC(=O)CC3CCCCN3)c2)cc(-c2ccc(F)cc2O)nc1NC(=O)c1ccco1 (stereo not drawn) [Example 290, hydrochloride]
CN(C)CC(=O)Nc1cccc(-c2cc(-c3ccc(F)cc3O)nc(NC(=O)c3ccco3)c2CN(C)C)c1 [Example 300, N-[3-[(dimethylamino)methyl]-4-{3-[(N,N-dimethylglycyl)amino]phenyl}-6-(4-fluoro-2-hydroxyphenyl)pyridin-2-yl]-2-furamide dihydrochloride]

— US20090156646A1, “PYRIDYLPHENOL COMPOUND AND USE THEREOF” (TAKEDA PHARMACEUTICAL COMPANY LIMITED, priority 2005, published 2009)
